From US20220280561A1, “COPPER-ATSM FOR TREATING NEURODEGENERATIVE DISORDERS ASSOCITED WITH MITOCHONDRIAL DYSFUNCTION” (RESEARCH INSTITUTE AT NATIONWIDE CHILDREN'S HOSPITAL, priority 2019, published 2022) come the findings set out here.

Molecules are shown by their SMILES.

Assay type in all cases: cell-based, human
One test concerns SCN2A iAstrocytes. Briefly: Seahorse basal and ATP-linked respiration, SCN2A iAstrocytes. The following applies: SCN2A iAstrocytes vs corresponding untreated controls; restored to healthy levels. The method, then:
Astrocytes treated with and without CuATSM were seeded on a 96 well Seahorse plate for extracellular flux analysis. Basal oxygen consumption (FIG. 6A) was measured at three time points followed by ATP synthase inhibition using oligomycin. The difference between basal respiration and oligomycin addition was used to calculate ATP linked respiration (FIG. 6B). […] All experiments were run at least in duplicate. Statistical analysis comparing treated and untreated individual patient lines was performed using student T-test.
Mitochondrial function: Induced astrocytes were seeded on 24 well seahorse plates in quadruplicate or a 96 well seahorse plate in quintuplicate as summarized in FIG. 9C. Twenty-four hours later media was replaced with seahorse base media containing 10 Mm glucose and 2 Mm glutamine. Oligomycin (1 Um), FCCP (5 Um) and antimycin A (10 Um) were injected separately to evaluate oxygen consumption following inhibition of the ATPase synthase, mitochondrial uncoupling and total shutdown of the electron transport chain. Alternatively, iAstrocyte media was replaced with a mitochondrial buffer (220 Mm mannitol, 70 Mm sucrose, 10 Mm KH2PO4, 5 Mm Hepes, 1 Mm EGTA and 0.2% Fatty acid free BSA) to measure complex IV dependent oxygen consumption. […] Oxygen consumption was measured in both assays using the Seahorse XF and Seahorse XFe. […]

For another test, the system named is Nav1.2. Briefly: Nav1.2 staining of SCN2A-1 patient induced neurons. The following applies: SCN2A-1 induced neurons treated on day 5 and 7 of differentiating. As to the method: Next, SCN2A patient brain organoids were treated with CuATSM and RNA Seq analysis was performed. […] Uniform manifold approximation and projection (UMAP) for dimension reduction was used for visualization. […] Importantly, expression of SCN2A gene is reduced upon treatment with CuATSM (FIG. 18D). These findings were confirmed by directly differentiating the same patient fibroblasts (SCN2A-1) into induced neurons. Neurons were treated with CuATSM on day 5 and 7 of differentiating then stained for Nav1.2. […] Thus CuATSM can also downregulate SCN2A expression in […] which may add additional therapeutic benefit for these patients.

In another test the test system is ALS iAstrocytes. In words: Seahorse extracellular flux analysis, basal and ATP-linked respiration, energy map, ALS iAstrocytes. The method, then:
Neuronal progenitors cells were cultured on fibronectin coated dishes in NPC media (DMEM/F12 media containing 1% N2 supplement (Life Technologies), 1% B27 and 20 ng/ml fibroblast growth factor-2) until confluent. Astrocytes were differentiated by seeding a small quantity of NPCs on another fibronectin coated dish in astrocyte inducing media (DMEM media containing 0.2% N2 and 10% FBS). Cells were treated with CuATSM daily, beginning day 2 of differentiation. Five days post differentiation, induced astrocytes were seeded either into a 96 well (10,000 cells/well), 384 well (2,500 cells/well), a 24 well seahorse plate (20,000 cells/well) or a 96 well seahorse plate (25,000 cells/well treated, 12,500 cells/well untreated).
(§1) Mitochondrial function: Induced astrocytes were seeded on 24 well seahorse plates in quadruplicate or a 96 well seahorse plate in quintuplicate as summarized in FIG. 9C. Twenty-four hours later media was replaced with seahorse base media containing 10 Mm glucose and 2 Mm glutamine. Oligomycin (1 Um), FCCP (5 Um) and antimycin A (10 Um) were injected separately to evaluate oxygen consumption following inhibition of the ATPase synthase, mitochondrial uncoupling and total shutdown of the electron transport chain. Alternatively, iAstrocyte media was replaced with a mitochondrial buffer (220 Mm mannitol, 70 Mm sucrose, 10 Mm KH2PO4, 5 Mm Hepes, 1 Mm EGTA and 0.2% Fatty acid free BSA) to measure complex IV dependent oxygen consumption. CoxIV activity was induced using 0.5 Mm TMPD, 2 Mm Ascorbate, 1 Mm ADP, 10 Um antimycin A, 10 Mm azide and 1.1 nM seahorse XF membrane permeabilizer. Oxygen consumption was measured in both assays using the Seahorse XF and Seahorse XFe.
Given that CuATSM responders have elevation in basal and/or ATP-linked respiration as well as complex IV activity, it was sought to determine if CuATSM treatment can restore mitochondrial activity to normal range. To do so, the basal and/or ATP-linked respiration of treated and untreated astrocytes were compared. […]

In another test the test system is iNOS. In words: western blot of iNOS levels in iAstrocytes. The method, then:
Western blotting: iAstrocyte pellets were lysed in RIPA or IP buffer and with sonication or freeze thaw respectively. 50 ug of protein was loaded into precast gels and separated by electrophoresis. Protein was then transferred to a PVDF membrane, blocked with odyssey blocking buffer (Licor) and incubated with primary antibody overnight. The following day membranes were washed and incubated with Licor secondary antibodies for one hour at room temperature. Membranes were imaged using Odyssey CLx.
Since nitric oxide is produced by inducible nitric oxide synthase (iNOS), the overall levels of iNOS was quantified by western blot. While CuATSM had no effect on nitric oxide synthase levels for most patient lines, there were two lines (ALS4 and ALS6) where these levels were reduced (FIGS. 4C and 4D). […] Thus iNOS and nitric oxide production are not mediating the therapeutic effect of CuATSM.

Test [1] relates to complex IV (CoxIV) in ALS iAstrocytes. Briefly: Seahorse complex IV (CoxIV) activity on permeabilized iAstrocytes. The following applies: ALS iAstrocytes treated vs untreated; not fully reduced to healthy control levels. The method, then:
as §1

[2] abbreviates: ALS patient iAstrocytes, treated vs untreated, all patient lines, to levels at or below healthy untreated controls.

Turning to `CN=C([S-])N/N=C(C)/C(C)=N/NC([S-])=NC.[Cu+2]` [CuATSM, diacetyl-bis(4-methylthiosemicarbazonato) copperII], the ATP-linked respiration entry in the test on SCN2A iAstrocytes is listed as “reduced”; in the test on ALS iAstrocytes (setting [2]) it was “significantly reduced”. Moreover, the basal respiration entry in the test on SCN2A iAstrocytes is “reduced”; with ALS iAstrocytes (setting [2]), “significantly reduced”. Also, the Nav1.2 protein levels entry in the test on Nav1.2 is reported as “reduced”. The “mitochondrial activity / energy state (OCR vs ECAR energy map)” value in the test on ALS iAstrocytes (ALS responders before and after treatment) is reported as “restores the mitochondrial activity of ALS responders to a healthy energy state”. The “nitric oxide synthase (iNOS) levels” value in the test with iNOS (lines ALS4 and ALS6) is recorded as “reduced”; with iNOS (most patient lines) it was “no effect”. Besides, in test [1], the CoxIV activity result was “significantly reduced in the all but one patient line (ALS1)”.
